Patent US8586568B2, “Methods and products for treatment of diseases” (Ampio Pharmaceuticals, Inc., priority 2005, dated 2013)
Where two headings read alike, the source gives them in different places.

What was measured:
[1] = tested on: HUVEC cells; test: Danazol BioCoat Matrigel Invasion Chamber; assay type: cell-based, Human; settings: 5% FCS in bottom chamber, 24 hours
Procedure: BioCoat Matrigel Invasion Chambers were purchased from BD Biosciences (San Jose, Calif.). Inserts were rehydrated at 37° C. with 500 μl HBSS for 2 hours prior to use in humidified incubator. Trypsinized HUVEC cells were washed twice with warm EGM-2 containing 0.1% FCS and added to the upper chamber of the invasion insert at 100,000 cells in a total volume of 250 μl. Danazol and control compounds were added to the upper reservoir at final concentrations of 10 μM and 100 μM. 750 μl EGM-2 supplemented with 5% FCS was added to the bottom chamber to initiate invasion and the plates were incubated for 24 hours. Non-invasive cells were removed from the upper chamber with moistened cotton swabs and then the inserts were washed twice with HBSS. The inserts were then submerged in 10 μM calcein AM prepared in HBSS and incubated for 4 hours. Fluorescence was determined in a microplate reader at 485 nm excitation and 595 nm emission.
All data is presented as representative experiment done in triplicate. Differences between subsets were analyzed using student t-test in Microsoft Excel. P<0.05 was considered statistically significant.

[2] = tested on: Human umbilical vein endothelial cells 7016 (HUVEC); test: Invasion chamber: fetal calf serum induced endothelial cell invasion through matrigel treated inserts (trilostane III); settings: for Mean FU: 5% FCS in bottom chamber, 24 hours, background subtracted, n=3; for effect on endothelial cell invasion: high dose (50 μM), 5% FCS induced invasion
Procedure: 1. Trypsinized HUVEC cells from flasks grown in Cambrex EGM-2 media to 70-80% confluence were washed two times with 37° C. EGM-2 with 0.1% FCS.
2. Cell suspensions containing 30,000 cells and compounds in EGM-2 0.1% FCS were added to the upper chamber of inserts.
3. EGM-2 containing 5% FCS was added to the bottom chamber and then incubated for 24 hours at 37° C. and 5% CO2.
4. Non-invading cells were removed from the upper chamber with cotton swab and the inserts were washed two times with 37° C. HBSS.
5. Inserts were then placed in wells containing 10 μM Calcein AM in HBSS.
6. Following four hours at 37° C. and 5% CO2, fluorescence was measured at 485 nm excitation and 595 nm emission.
Results are presented as mean fluorescent units (FU) in triplicate (n=3) with background fluorescence subtracted. […] To determine background invasion, nil inserts were included in triplicate that had EGM-2 with 0.1% FCS added to the bottom chamber.

[3] = tested on: HUVEC cells; test: Trilostane III tube formation assay in extracellular matrix gel; assay type: cell-based, Human; settings: 50 μM, 18 hours
Procedure: 1. […] EGM-2 with 0.1% FCS.
2. Cell suspensions containing 10,000 cells and compounds in both EGM-2 0.1% and 5% FCS were added per well then incubated for 18 hours at 37° C. and 5% CO2.
3. Following incubation, tube formations were photographed under microscope.
Passage 3 HUVEC 8750 cells were used for this experiment at 98% viability by trypan blue exclusion at time of seeding.

[4] = tested on: HUVEC cells; test: Trilostane III effect on HUVEC cell proliferation (Celltiter 96 Aqueous One); assay type: cell-based, Human; settings: for mean OD: 5% FCS, blank subtracted; for OD 1: replicate 1; for OD 2: replicate 2; for OD 3: replicate 3; for inhibition at 100 µM: Homo sapiens, HUVEC, read-out: inhibition of cultures (cell proliferation)
Procedure: 2. Medium was aspirated and the cells were then washed two times with 37° C. HBSS.
4. Cells were again washed to times with warm HBSS and then Celltiter reagent in EGM-2 with 0.1% FCS was added.
5. After 4 hours in culture the OD of each well was determine at 470 nm.
6. Repeat steps 4 and 5 for each time point.
Results are presented as mean OD of samples performed in triplicate (n=3) with mean blank OD subtracted. HUVEC 8750 cells were used for this experiment with 98% viability by trypan blue exclusion at time of seeding. […] The raw data are shown in Table 2 below and depicted graphically in FIG. 2.

[5] = tested on: HUVEC cells; test: Danazol effect on HUVEC cell proliferation (Celltiter 96 AQueous One); assay type: cell-based, Human; settings: for OD: OD±standard deviation
Procedure: Primary HUVEC and EGM-2 growth medium were obtained from Cambrex (Walkersville, Md.). The cells were passaged in medium supplemented with 2% fetal calf serum (FCS) in tissue culture flasks at 37° C. and 5% CO2. Subculturing was performed using trypsin when 60-80% confluence was obtained as specified by the supplier.
Cryopreserved ampoules of passage 2 HUVEC cells were thawed and plated in 96 well tissue culture plates at 5,000 cells/cm^2. A 50 mM stock solution of danazol was prepared in ethanol and the FCS in the medium was increased to 5% to keep danazol in solution. The cells were treated with medium containing final concentrations of danazol ranging from 0.1 to 100 μM in triplicates. 24, 48, and 72 hour incubations were performed and cell proliferation was determined utilizing Celltiter 96 AQueous One Solution Cell Proliferation assay from Promega (Madison, Wis.). In short, medium was aspirated from each well and the cells were washed with 200 μl […] buffered saline (HBSS) from Cambrex warmed to 37° C. 100 μl diluted celltiter solution (15 μl stock+85 μl EGM-2 containing 0.1% FCS) were added to each well and incubated for an additional 4 hours. Optical density was determined by microplate reader using a 530 nm filter after blank subtraction and data presented as OD±standard deviation. The final concentration of ethanol in the wells was less then 0.2% and had no effect on cell proliferation or viability.
All data are presented as representative experiment done in triplicate. Differences between subsets were analyzed using student t-test in Microsoft Excel. P<0.05 was considered statistically significant.

[6] = tested on: HUVEC cells; test: Danazol Endothelial Cell Tube Formation Assay on matrigel plugs; assay type: cell-based, Human; settings: 5% FCS, 18 hours
Procedure: To investigate the formation of capillary-like structures by HUVEC cells, the Angiogenesis System Endothelial Cell Tube Formation Assay was purchased from BD Biosciences (San Jose, Calif.) and used according to the manufacturers protocol. In brief, 100,000 HUVEC cells were seeded onto rehydrated matrigel plugs in 96 well tissue culture plates in the presence of 5% FCS to induce tube formation. […] After 18 hours the wells were photographed using a Kodak DCS Pro SLR/N digital camera (Rochester, N.Y.) mounted on an inverted microscope. Ethanol treated wells were included to determine if the vehicle had any effects on cell differentiation.

[7] = without added 5% FCS (nil wells, 0.1% FCS)
[8] = Homo sapiens, HUVEC, 24 h, read-out: percent inhibition of proliferation
[9] = Homo sapiens, HUVEC, 48 h, read-out: percent inhibition of proliferation
[10] = Homo sapiens, HUVEC, 72 h, read-out: percent inhibition of proliferation

## O=c1cc(N2CCOCC2)oc2c(-c3ccccc3)cccc12 [LY294002]
[1]; concentration not stated with the value
  fluorescence of invaded cells: 5814±153 FU
[2]; 50 μM
  Mean FU: 9454.33 FU

## O=c1cc(N2CCNCC2)oc2c(-c3ccccc3)cccc12 [LY303511]
[3]; [7]
  tube formation: comparable tube formations to untreated cells
[2]; 50 μM
  Mean FU: 12795.3 FU
[2]
  effect on endothelial cell invasion: had no effect on invasion

## 2α-cyano-4α,5α-epoxyandrostan-17β-ol-3-one [trilostane]
[2]; 25 μM
  Mean FU: 11212.3 FU
[2]; 50 μM
  Mean FU: 9101.33 FU

## C[C@]12CCC3C(CC[C@@]45O[C@@H]4C4ON=CC4C[C@]35C)C1CC[C@@H]2O (stereo partly drawn) [trilostane III]
[4]; 0.1 uM, 24 hour
  mean OD: 0.3873
  OD 1: 0.362
  OD 2: 0.368
  OD 3: 0.432
[4]; 0.1 uM, 48 hour
  mean OD: 0.656
  OD 1: 0.575
  OD 2: 0.698
  OD 3: 0.695
[4]; 0.1 uM, 72 hour
  mean OD: 0.9187
  OD 1: 0.733
  OD 2: 0.962
  OD 3: 1.061
[4]; 1 uM, 24 hour
  mean OD: 0.311
  OD 1: 0.284
  OD 2: 0.328
  OD 3: 0.321
[4]; 1 uM, 48 hour
  mean OD: 0.4347
  OD 1: 0.358
  OD 2: 0.489
  OD 3: 0.457
[4]; 1 uM, 72 hour
  mean OD: 0.3877
  OD 1: 0.387
  OD 2: 0.437
  OD 3: 0.339
[4]; 10 uM, 24 hour
  mean OD: 0.2467
  OD 1: 0.18
  OD 2: 0.267
  OD 3: 0.293
[4]; 10 uM, 48 hour
  mean OD: 0.203
  OD 1: 0.159
  OD 2: 0.208
  OD 3: 0.242
[4]; 10 uM, 72 hour
  mean OD: 0.072
  OD 1: 0.031
  OD 2: 0.095
  OD 3: 0.09
[4]; 100 uM, 24 hour
  mean OD: 0.2787
  OD 1: 0.235
  OD 2: 0.334
  OD 3: 0.267
[4]; 100 uM, 48 hour
  mean OD: 0.2147
  OD 1: 0.17
  OD 2: 0.23
  OD 3: 0.244
[4]; 100 uM, 72 hour
  mean OD: 0.108
  OD 1: 0.092
  OD 2: 0.119
  OD 3: 0.113
[4]; 24 hours
  lowest concentration with statistically relevant decrease in cell proliferation: 1 µM
  inhibition at 100 µM: 33%
[4]; 48 hours
  inhibition at 100 µM: 67%
[4]; 72 hours
  inhibition at 100 µM: 90%
[4]; all wells, even highest doses after 72 hours in culture
  cell viability under inverted microscope: Viable cells were visible in all wells
[3]; in the presence of 5% fetal calf serum
  tube formation: greatly reduced tube formation
[3]; [7]
  tube formation: decrease in branching, vacuole formation, and increase in satellite cells
[2]
  effect on endothelial cell invasion: dropped the levels back to background

## C#C[C@]1(O)CC[C@H]2[C@@H]3CCC4=Cc5oncc5C[C@]4(C)[C@H]3CC[C@@]21C [danazol, 17α-pregna-2,4-dien-20-yno[2,3-d]-isoxazol-17β-ol]
[5]; 0.1 μM, 72 hours
  OD: 0.798±0.037
[5]; 1 μM, 48 hours
  OD: 0.378±0.037
[5]; 1 μM, 72 hours
  OD: 0.484±0.022
[5]; 10 μM, 24 hours
  OD: 0.288±0.037
[5]; 10 μM, 48 hours
  OD: 0.241±0.012
[5]; 10 μM, 72 hours
  OD: 0.229±0.016
[5]; 100 μM, 24 hours
  OD: 0.162±0.017
[5]; 100 μM, 48 hours
  OD: 0.19±0.033
[5]; 100 μM, 72 hours
  OD: 0.156±0.018
[5]; 100 μM, all time points
  effect on cell proliferation: complete arrest of cell proliferation
[5]; 48 hours
  concentration at which inhibition was significant: approximately 1 μM
[5]; [8]
  inhibition at 10 µM: 30%
  inhibition at 100 µM: 65%
[5]; [9]
  inhibition at 1 µM: 40%
  inhibition at 10 µM: 61%
  inhibition at 100 µM: 70%
[5]; [10]
  inhibition at 0.1 µM: 28%
  inhibition at 1 µM: 57%
  inhibition at 10 µM: 80%
  inhibition at 100 µM: 86%
[6]; 50 μM
  tube formation: isolated colonies of HUVEC located in the plug with very few, thin connections or vessel lumen spaces
[6]; danazol 1-50 μM
  tube formation: fewer organized structures with thin and less defined interconnections than controls
[1]; 10 μM
  effect on cell invasion: had no effect
[1]; 100 μM
  effect on cell invasion: had no effect
